Source: ChEMBL document CHEMBL3046000, “Design and synthesis of 1-(benzothiazol-5-yl)-1H-1,2,4-triazol-5-ones as protoporphyrinogen oxidase inhibitors” (Bioorg Med Chem, 2013)

Legend:
Chenopodium album [1] = experiment: Post-emergence herbicidal activity against Chenopodium album seedlings assessed as plant growth inhibition at 75 g ai/ha measured 15 days after compound treatment under greenhouse conditions; assay type: functional; conditions: 360 h, read-out: GI
Chenopodium album [2] = experiment: Post-emergence herbicidal activity against Chenopodium album seedlings assessed as plant growth inhibition at 37.5 g ai/ha measured 15 days after compound treatment under greenhouse conditions; assay type: functional; conditions: 360 h, read-out: GI
Chenopodium album [3] = experiment: Post-emergence herbicidal activity against Chenopodium album seedlings assessed as plant growth inhibition at 150 g ai/ha measured 15 days after compound treatment under greenhouse conditions; assay type: functional; conditions: 360 h, read-out: GI
Amaranthus retroflexus [4] = experiment: Post emergence herbicidal activity against Amaranthus retroflexus seedlings assessed as plant growth inhibition at 75 g ai/ha measured 15 days after compound treatment under greenhouse conditions; assay type: functional; conditions: 360 h, read-out: GI
Amaranthus retroflexus [5] = experiment: Post emergence herbicidal activity against Amaranthus retroflexus seedlings assessed as plant growth inhibition at 37.5 g ai/ha measured 15 days after compound treatment under greenhouse conditions; assay type: functional; conditions: 360 h, read-out: GI
Amaranthus retroflexus [6] = experiment: Post emergence herbicidal activity against Amaranthus retroflexus seedlings assessed as plant growth inhibition at 150 g ai/ha measured 15 days after compound treatment under greenhouse conditions; assay type: functional; conditions: 360 h, read-out: GI
Brassica juncea [7] = experiment: Post-emergence herbicidal activity against Brassica juncea seedlings assessed as plant growth inhibition at 75 g ai/ha measured 15 days after compound treatment under greenhouse conditions; assay type: functional; conditions: 360 h, read-out: GI
Brassica juncea [8] = experiment: Post-emergence herbicidal activity against Brassica juncea seedlings assessed as plant growth inhibition at 37.5 g ai/ha measured 15 days after compound treatment under greenhouse conditions; assay type: functional; conditions: 360 h, read-out: GI
Brassica juncea [9] = experiment: Post-emergence herbicidal activity against Brassica juncea seedlings assessed as plant growth inhibition at 150 g ai/ha measured 15 days after compound treatment under greenhouse conditions; assay type: functional; conditions: 360 h, read-out: GI
Setaria faberi [10] = experiment: Post-emergence herbicidal activity against Setaria faberi (Giant Foxtail) seedlings assessed as plant growth inhibition at 75 g ai/ha measured 15 days after compound treatment under greenhouse conditions; assay type: functional; conditions: 360 h, read-out: GI
Setaria faberi [11] = experiment: Post-emergence herbicidal activity against Setaria faberi (Giant Foxtail) seedlings assessed as plant growth inhibition at 37.5 g ai/ha measured 15 days after compound treatment under greenhouse conditions; assay type: functional; conditions: 360 h, read-out: GI
Setaria faberi [12] = experiment: Post-emergence herbicidal activity against Setaria faberi (Giant Foxtail) seedlings assessed as plant growth inhibition at 150 g ai/ha measured 15 days after compound treatment under greenhouse conditions; assay type: functional; conditions: 360 h, read-out: GI
Digitaria sanguinalis [13] = experiment: Post-emergence herbicidal activity against Digitaria sanguinalis (hairy crabgrass) seedlings assessed as plant growth inhibition at 75 g ai/ha measured 15 days after compound treatment under greenhouse conditions; assay type: functional; conditions: 360 h, read-out: GI
Digitaria sanguinalis [14] = experiment: Post-emergence herbicidal activity against Digitaria sanguinalis (hairy crabgrass) seedlings assessed as plant growth inhibition at 37.5 g ai/ha measured 15 days after compound treatment under greenhouse conditions; assay type: functional; conditions: 360 h, read-out: GI
Digitaria sanguinalis [15] = experiment: Post-emergence herbicidal activity against Digitaria sanguinalis (hairy crabgrass) seedlings assessed as plant growth inhibition at 150 g ai/ha measured 15 days after compound treatment under greenhouse conditions; assay type: functional; conditions: 360 h, read-out: GI
Echinochloa crus-galli [16] = experiment: Post emergence herbicidal activity against Echinochloa crus-galli (barnyard grass) seedlings assessed as plant growth inhibition at 75 g ai/ha measured 15 days after compound treatment under greenhouse conditions; assay type: functional; conditions: 360 h, read-out: GI
Echinochloa crus-galli [17] = experiment: Post emergence herbicidal activity against Echinochloa crus-galli (barnyard grass) seedlings assessed as plant growth inhibition at 37.5 g ai/ha measured 15 days after compound treatment under greenhouse conditions; assay type: functional; conditions: 360 h, read-out: GI
Echinochloa crus-galli [18] = experiment: Post emergence herbicidal activity against Echinochloa crus-galli (barnyard grass) seedlings assessed as plant growth inhibition at 150 g ai/ha measured 15 days after compound treatment under greenhouse conditions; assay type: functional; conditions: 360 h, read-out: GI
[19] = target: T1, Protoporphyrinogen oxidase, chloroplastic (Nicotiana tabacum, UniProt O24163); experiment: Inhibition of Nicotiana tabacum (tobacco) recombinant PPO assessed as protoporphyrin IX formation at room temperature by fluorimetric assay
T1 sequence (O24163 whole entry): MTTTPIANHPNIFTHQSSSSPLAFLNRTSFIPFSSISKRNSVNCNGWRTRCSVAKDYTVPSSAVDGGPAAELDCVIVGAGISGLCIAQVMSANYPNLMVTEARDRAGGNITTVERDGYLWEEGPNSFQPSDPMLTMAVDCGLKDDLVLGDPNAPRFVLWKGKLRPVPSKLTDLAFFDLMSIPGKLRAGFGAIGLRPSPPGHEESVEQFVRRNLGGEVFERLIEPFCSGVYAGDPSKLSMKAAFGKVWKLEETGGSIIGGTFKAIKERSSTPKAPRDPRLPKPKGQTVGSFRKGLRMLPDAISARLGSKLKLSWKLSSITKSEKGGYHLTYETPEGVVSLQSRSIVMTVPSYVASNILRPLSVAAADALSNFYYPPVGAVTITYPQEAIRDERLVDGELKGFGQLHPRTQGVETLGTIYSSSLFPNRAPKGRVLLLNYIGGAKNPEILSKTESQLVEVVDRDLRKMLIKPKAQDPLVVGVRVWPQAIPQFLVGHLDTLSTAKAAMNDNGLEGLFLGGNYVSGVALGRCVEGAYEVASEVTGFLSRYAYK

Row | SMILES | Ki [19] [µM] | inhibition of growth at 75 g/ha (Chenopodium album [1]) [%] | inhibition of growth at 37.5 g/ha (Chenopodium album [2]) [%] | inhibition of growth at 150 g/ha (Chenopodium album [3]) [%] | inhibition of growth at 75 g/ha (Amaranthus retroflexus [4]) [%] | inhibition of growth at 37.5 g/ha (Amaranthus retroflexus [5]) [%] | inhibition of growth at 150 g/ha (Amaranthus retroflexus [6]) [%] | inhibition of growth at 75 g/ha (Brassica juncea [7]) [%] | inhibition of growth at 37.5 g/ha (Brassica juncea [8]) [%] | inhibition of growth at 150 g/ha (Brassica juncea [9]) [%] | inhibition of growth at 75 g/ha (Setaria faberi [10]) [%] | inhibition of growth at 37.5 g/ha (Setaria faberi [11]) [%] | inhibition of growth at 150 g/ha (Setaria faberi [12]) [%] | inhibition of growth at 75 g/ha (Digitaria sanguinalis [13]) [%] | inhibition of growth at 37.5 g/ha (Digitaria sanguinalis [14]) [%] | inhibition of growth at 150 g/ha (Digitaria sanguinalis [15]) [%] | inhibition of growth at 75 g/ha (Echinochloa crus-galli [16]) [%] | inhibition of growth at 37.5 g/ha (Echinochloa crus-galli [17]) [%] | inhibition of growth at 150 g/ha (Echinochloa crus-galli [18]) [%]
1 | CCOC(=O)CSc1nc2cc(-n3nc(C)n(C(F)F)c3=O)c(F)cc2s1 | 0.06 | 80 | 80 | 80 | 80 | 80 | 60 | 80 | 80 | ≥ 90 | < 50 | < 50 | ≥ 90 | 50 | < 50 | ≥ 90 | 50 | < 50 | ≥ 90
2 | CCOC(=O)Sc1nc2cc(-n3nc(C)n(C(F)F)c3=O)c(F)cc2s1 | 0.58 | 60 | < 50 | ≥ 90 | < 50 | < 50 | ≥ 90 | < 50 | < 50 | ≥ 90 | < 50 | < 50 | < 50 | < 50 | < 50 | 50 | < 50 | < 50 | 50
3 | Cc1nn(-c2cc3nc(SCC(=O)O)sc3cc2Cl)c(=O)n1C(F)F | 10.3 | ≥ 90 | 80 | ≥ 90 | ≥ 90 | 50 | ≥ 90 | ≥ 90 | 60 | ≥ 90 | < 50 | < 50 | ≥ 90 | < 50 | < 50 | ≥ 90 | < 50 | < 50 | ≥ 90
4 | Cc1nn(-c2cc3nc(SC(C)C(=O)O)sc3cc2Cl)c(=O)n1C(F)F (configuration not stated) | 6.73 | ≥ 90 | 60 | ≥ 90 | 60 | < 50 | ≥ 90 | 80 | < 50 | ≥ 90 | < 50 | < 50 | ≥ 90 | < 50 | < 50 | ≥ 90 | < 50 | < 50 | ≥ 90
5 | Cc1nn(-c2cc3nc(SCC(=O)O)sc3cc2F)c(=O)n1C(F)F | 1.52 | 80 | 80 | ≥ 90 | ≥ 90 | ≥ 90 | ≥ 90 | 80 | < 50 | ≥ 90 | 50 | 50 | ≥ 90 | < 50 | < 50 | ≥ 90 | 50 | 50 | ≥ 90

More lines, main results first:

Row | Ki [19] [µM] | SMILES | inhibition of growth at 75 g/ha (Chenopodium album [1]) [%] | inhibition of growth at 37.5 g/ha (Chenopodium album [2]) [%] | inhibition of growth at 150 g/ha (Chenopodium album [3]) [%] | inhibition of growth at 75 g/ha (Amaranthus retroflexus [4]) [%] | inhibition of growth at 37.5 g/ha (Amaranthus retroflexus [5]) [%] | inhibition of growth at 150 g/ha (Amaranthus retroflexus [6]) [%] | inhibition of growth at 75 g/ha (Brassica juncea [7]) [%] | inhibition of growth at 37.5 g/ha (Brassica juncea [8]) [%] | inhibition of growth at 150 g/ha (Brassica juncea [9]) [%] | inhibition of growth at 75 g/ha (Setaria faberi [10]) [%] | inhibition of growth at 37.5 g/ha (Setaria faberi [11]) [%] | inhibition of growth at 150 g/ha (Setaria faberi [12]) [%] | inhibition of growth at 75 g/ha (Digitaria sanguinalis [13]) [%] | inhibition of growth at 37.5 g/ha (Digitaria sanguinalis [14]) [%] | inhibition of growth at 150 g/ha (Digitaria sanguinalis [15]) [%] | inhibition of growth at 75 g/ha (Echinochloa crus-galli [16]) [%] | inhibition of growth at 37.5 g/ha (Echinochloa crus-galli [17]) [%] | inhibition of growth at 150 g/ha (Echinochloa crus-galli [18]) [%]
6 | 1.67 | Cc1nn(-c2cc3nc(SCCC(=O)O)sc3cc2F)c(=O)n1C(F)F | ≥ 90 | 80 | ≥ 90 | ≥ 90 | 60 | ≥ 90 | ≥ 90 | 60 | ≥ 90 | 50 | < 50 | < 50 | 50 | < 50 | 50 | < 50 | < 50 | 50
7 | 1.21 | Cc1nn(-c2cc3nc(SC(C)C(=O)O)sc3cc2F)c(=O)n1C(F)F (configuration not stated) | ≥ 90 | 50 | ≥ 90 | ≥ 90 | ≥ 90 | ≥ 90 | ≥ 90 | ≥ 90 | ≥ 90 | 60 | 60 | ≥ 90 | < 50 | < 50 | ≥ 90 | 60 | 60 | ≥ 90
8 | 1.08 | COC(=O)CSc1nc2cc(-n3nc(C)n(C(F)F)c3=O)c(F)cc2s1 | ≥ 90 | < 50 | ≥ 90 | ≥ 90 | ≥ 90 | ≥ 90 | ≥ 90 | 60 | ≥ 90 | 60 | 60 | ≥ 90 | < 50 | < 50 | ≥ 90 | 60 | 60 | ≥ 90
